Experimental data from patent publication US6932961B1, “Oxazinocarbazoles for the treatment of CNS diseases” (Pharmacia & Upjohn Company, priority 2002, dated 2005).
Structures can show the parent of a compound that is named as a salt.

system: not given; assay: not given; settings: not given

SMILES	melting point [°C]
NCCOc1cccc2c1c1cccc3c1n2[C@H](c1ccccc1)CO3 (as salt: sulfonic acid salt) [Example 2, (R)−)-[(1-Phenyl-1,2-dihydro[1,4]oxazino[2,3,4-jk]carbazol-7-yl)oxy]ethanamine and its methanesulfonic acid salt]	236
CCNCCOc1cccc2c1c1cccc3c1n2C(c1ccccc1)CO3.O=C(O)/C=C\C(=O)O (centres unmarked) [Example 6, N-Ethyl-2-[(1-phenyl-1,2-dihydro[1,4]oxazino[2,3,4-jk]carbazol-7-yl)oxy]-ethanamine and its maleic acid salt]	105
c1ccc(C2COc3cccc4c5c(OCCN6CCNCC6)cccc5n2c34)cc1 (centres unmarked) [Example 13, 1-Phenyl-1,2-dihydro[1,4]oxazino[2,3,4-jk]carbazol-7-yl 2-(1-piperazinyl)ethyl ether]	72
CN(C)CCOc1cccc2c1c1cccc3c1n2C(c1ccccc1)CO3 (centres unmarked) [Example 18, N,N-dimethyl-2-[(1-phenyl-1,2-dihydro[1,4]oxazino[2,3,4-jk]carbazol-7-yl)oxy]-1-ethanamine]	117 to 118
CCN(CC)CCOc1cccc2c1c1cccc3c1n2C(c1ccccc1)CO3 (centres unmarked) (as salt: maleic acid salt) [Example 3, N,N-Diethyl-2-[(1-phenyl-1,2-dihydro[1,4]oxazino[2,3,4-jk]carbazol-7-yl)oxy]-1-ethanamine and its maleic acid salt]	105 to 107
CN1CCN(CCOc2cccc3c2c2cccc4c2n3C(c2ccccc2)CO4)CC1 (centres unmarked) [Example 14, 2-(4-Methyl-1-piperazinyl)ethyl 1-phenyl-1,2-dihydro[1,4]oxazino[2,3,4-jk]carbazol-7-yl ether]	57

biological target: T1, cloned human 5-HT6 receptor (Homo sapiens, UniProt P50406); assay: 5-HT6 receptor binding assay ([3H]-LSD, SPA); settings: membranes of Hela cells containing cloned human 5-HT6 receptor; [3H]-LSD radioligand; Ki from estimated IC50 by Cheng-Prusoff
T1 construct: host or cells: HeLa cells (G-418 selected); membranes prepared from them
T1 sequence (P50406 whole entry): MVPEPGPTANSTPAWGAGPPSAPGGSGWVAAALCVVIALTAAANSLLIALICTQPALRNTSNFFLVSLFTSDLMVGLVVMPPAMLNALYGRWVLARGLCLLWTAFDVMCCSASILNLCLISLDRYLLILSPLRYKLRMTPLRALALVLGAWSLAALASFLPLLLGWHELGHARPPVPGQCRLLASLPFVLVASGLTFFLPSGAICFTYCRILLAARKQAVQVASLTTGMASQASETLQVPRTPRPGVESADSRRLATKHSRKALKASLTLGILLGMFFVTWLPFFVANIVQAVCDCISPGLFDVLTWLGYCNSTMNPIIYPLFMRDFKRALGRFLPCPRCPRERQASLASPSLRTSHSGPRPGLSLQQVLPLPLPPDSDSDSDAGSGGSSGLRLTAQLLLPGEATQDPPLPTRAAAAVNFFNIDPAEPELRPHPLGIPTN
Protocol: Growth of Cells and Membrane Preparation
Hela cells containing the cloned human 5-HT6 receptor were acquired from Dr. David R. Sibley's laboratory in National Institute of Health (see Sibley, D. R., J. Neurochemistr, 66, 47-56, 1996). Cells were grown in high glucose Dulbecco's modified Eagle's medium, supplemented with L-glutamine, 0.5% sodium pyruvate, 0.3% penicillin-streptomycin, 0.025% G-418 and 5% Gibco fetal bovine serum and then were harvested, when confluent, in cold phosphate buffered saline.
Harvested intact cells were washed once in cold phosphate-buffered saline. The cells were pelleted and resuspended in 100 ml of cold 50 mM Tris, 5 mM EDTA and 5 mM EGTA, pH 7.4. Homogenization was with a Vir Tishear generator, 4 cycles for 30 seconds each at setting 50. The homogenized cells were centrifuged at […] for 10 minutes and the supernatant was removed. The pellet was resuspended in 100 ml of the above buffer and rehomogenized for 2 cycles. The rehomogenized cells were then centrifuged at […] for 10 minutes and the supernatant was removed. The combined supernatant (200 ml) was centrifuged at 23,000 RPM (80,000×g) for 1 hour in a Beckman Rotor (42.1 Ti). […]
The radioligand binding assay used [^3H]-lysergic acid diethylamide (LSD). […] The plates were then loaded into counting cassettes and counted in a Wallac MicroBeta Trilux scintillation counter. […]

SMILES	Ki [nM]
NCCOc1cccc2c1c1cccc3c1n2[C@H](c1ccccc1)CO3 [Example 2, (R)−)-[(1-Phenyl-1,2-dihydro[1,4]oxazino[2,3,4-jk]carbazol-7-yl)oxy]ethanamine and its methanesulfonic acid salt]	1.8
CC(C)NCCOc1cccc2c1c1cccc3c1n2C(c1ccccc1)CO3 (centres unmarked) [Example 5, N-isopropyl-N-{2-[(1-phenyl-1,2-dihydro[1,4]oxazino[2,3,4-jk]carbazol-7-yl)oxy]ethyl}amine and its maleic acid salt]	7.8
